Measured values taken from publication PMC3499629 (Journal of medicinal chemistry, 2012).
“Also recorded” adds a separate entry of the source.

Biological target: Gag' (GST-Gag) (Human immunodeficiency virus type 1 group M subtype B, UniProt P12493)
Type: binding, HIV-1
Conditions: DSF validation

C=C(C)[C@@H]1CC[C@]2(C(=O)O)CC[C@]3(C)[C@H](CC[C@@H]4[C@@]5(C)CC[C@H](OC(=O)CC(C)(C)C(=O)O)C(C)(C)[C@@H]5CC[C@]43C)[C@@H]12 [Bevirimat]
thermal stability (Tm) of Gag' in complex: increased the thermal stability; also recorded: higher melting temperature
